{"source": "the NIST ThermoML archive (doi:10.1021/je201116t)", "key": {"[1]": {"settings": "101 kPa, Liquid; for viscosity: Capillary tube (Ostwald / Ubbelohde) method"}, "[2]": {"experiment": "xn = mol fraction of the nth substance listed", "settings": "101 kPa, Liquid, x1 = 1; for viscosity: Capillary tube (Ostwald / Ubbelohde) method"}}, "note": "± gives the expanded uncertainty stated by the source."}
{"smiles": "CCC(=O)[O-].CC[NH+]1CCNCC1", "note": "[N-ethylpiperazinium propionate]", "values": [{"measurement": "mass density", "setting": "[1]; 298.15 K", "value": "1008.36 ± 1.2", "unit": "kg/m3"}, {"measurement": "viscosity", "setting": "[1]; 298.15 K", "value": "243.49 ± 7.6", "unit": "mPa·s"}, {"measurement": "mass density", "setting": "[1]; 303.15 K", "value": "1004.38 ± 1.2", "unit": "kg/m3"}, {"measurement": "viscosity", "setting": "[1]; 303.15 K", "value": "164.81 ± 4.6", "unit": "mPa·s"}, {"measurement": "mass density", "setting": "[1]; 308.15 K", "value": "1000.33 ± 1.2", "unit": "kg/m3"}, {"measurement": "viscosity", "setting": "[1]; 308.15 K", "value": "113.44 ± 2.7", "unit": "mPa·s"}, {"measurement": "mass density", "setting": "[1]; 313.15 K", "value": "996.237 ± 1.2", "unit": "kg/m3"}, {"measurement": "viscosity", "setting": "[1]; 313.15 K", "value": "80.93 ± 1.8", "unit": "mPa·s"}]}
{"smiles": "CCCCO", "note": "[butan-1-ol]", "values": [{"measurement": "mass density", "setting": "[1]; 298.15 K", "value": "805.814 ± 1.3", "unit": "kg/m3"}, {"measurement": "viscosity", "setting": "[1]; 298.15 K", "value": "2.577 ± 0.032", "unit": "mPa·s"}, {"measurement": "mass density", "setting": "[1]; 303.15 K", "value": "801.996 ± 1.3", "unit": "kg/m3"}, {"measurement": "viscosity", "setting": "[1]; 303.15 K", "value": "2.272 ± 0.029", "unit": "mPa·s"}, {"measurement": "mass density", "setting": "[1]; 308.15 K", "value": "798.13 ± 1.4", "unit": "kg/m3"}, {"measurement": "viscosity", "setting": "[1]; 308.15 K", "value": "2.01 ± 0.025", "unit": "mPa·s"}, {"measurement": "mass density", "setting": "[1]; 313.15 K", "value": "794.226 ± 1.4", "unit": "kg/m3"}, {"measurement": "viscosity", "setting": "[1]; 313.15 K", "value": "1.786 ± 0.023", "unit": "mPa·s"}]}
{"smiles": "CCCCO", "note": "[butan-1-ol] + CCC(=O)[O-].CC[NH+]1CCNCC1", "values": [{"measurement": "viscosity", "setting": "[2]; 298.15 K", "value": "2.577 ± 0.032", "unit": "mPa·s"}, {"measurement": "mass density", "setting": "[2]; 298.15 K", "value": "805.814 ± 1.3", "unit": "kg/m3"}, {"measurement": "viscosity", "setting": "[2]; 303.15 K", "value": "2.272 ± 0.029", "unit": "mPa·s"}, {"measurement": "mass density", "setting": "[2]; 303.15 K", "value": "801.996 ± 1.3", "unit": "kg/m3"}, {"measurement": "viscosity", "setting": "[2]; 308.15 K", "value": "2.01 ± 0.025", "unit": "mPa·s"}, {"measurement": "mass density", "setting": "[2]; 308.15 K", "value": "798.13 ± 1.4", "unit": "kg/m3"}, {"measurement": "viscosity", "setting": "[2]; 313.15 K", "value": "1.786 ± 0.023", "unit": "mPa·s"}, {"measurement": "mass density", "setting": "[2]; 313.15 K", "value": "794.226 ± 1.4", "unit": "kg/m3"}]}
{"smiles": "CCO", "note": "[ethanol]", "values": [{"measurement": "mass density", "setting": "[1]; 298.15 K", "value": "785.499 ± 1.4", "unit": "kg/m3"}, {"measurement": "viscosity", "setting": "[1]; 298.15 K", "value": "1.091 ± 0.013", "unit": "mPa·s"}, {"measurement": "mass density", "setting": "[1]; 303.15 K", "value": "781.197 ± 1.4", "unit": "kg/m3"}, {"measurement": "viscosity", "setting": "[1]; 303.15 K", "value": "0.9986 ± 0.012", "unit": "mPa·s"}, {"measurement": "mass density", "setting": "[1]; 308.15 K", "value": "776.853 ± 1.4", "unit": "kg/m3"}, {"measurement": "viscosity", "setting": "[1]; 308.15 K", "value": "0.9139 ± 0.011", "unit": "mPa·s"}, {"measurement": "mass density", "setting": "[1]; 313.15 K", "value": "772.468 ± 1.5", "unit": "kg/m3"}, {"measurement": "viscosity", "setting": "[1]; 313.15 K", "value": "0.8387 ± 0.01", "unit": "mPa·s"}]}
{"smiles": "CCO", "note": "[ethanol] + CCC(=O)[O-].CC[NH+]1CCNCC1", "values": [{"measurement": "viscosity", "setting": "[2]; 298.15 K", "value": "1.091 ± 0.013", "unit": "mPa·s"}, {"measurement": "mass density", "setting": "[2]; 298.15 K", "value": "785.499 ± 1.4", "unit": "kg/m3"}, {"measurement": "viscosity", "setting": "[2]; 303.15 K", "value": "0.9986 ± 0.012", "unit": "mPa·s"}, {"measurement": "mass density", "setting": "[2]; 303.15 K", "value": "781.197 ± 1.4", "unit": "kg/m3"}, {"measurement": "viscosity", "setting": "[2]; 308.15 K", "value": "0.9139 ± 0.011", "unit": "mPa·s"}, {"measurement": "mass density", "setting": "[2]; 308.15 K", "value": "776.853 ± 1.4", "unit": "kg/m3"}, {"measurement": "viscosity", "setting": "[2]; 313.15 K", "value": "0.8387 ± 0.01", "unit": "mPa·s"}, {"measurement": "mass density", "setting": "[2]; 313.15 K", "value": "772.468 ± 1.5", "unit": "kg/m3"}]}
{"smiles": "CO", "note": "[methanol]", "values": [{"measurement": "mass density", "setting": "[1]; 298.15 K", "value": "786.686 ± 1.4", "unit": "kg/m3"}, {"measurement": "viscosity", "setting": "[1]; 298.15 K", "value": "0.558 ± 0.0068", "unit": "mPa·s"}, {"measurement": "mass density", "setting": "[1]; 303.15 K", "value": "781.993 ± 1.4", "unit": "kg/m3"}, {"measurement": "viscosity", "setting": "[1]; 303.15 K", "value": "0.5261 ± 0.0065", "unit": "mPa·s"}, {"measurement": "mass density", "setting": "[1]; 308.15 K", "value": "777.249 ± 1.4", "unit": "kg/m3"}, {"measurement": "viscosity", "setting": "[1]; 308.15 K", "value": "0.4966 ± 0.0061", "unit": "mPa·s"}, {"measurement": "mass density", "setting": "[1]; 313.15 K", "value": "772.475 ± 1.5", "unit": "kg/m3"}, {"measurement": "viscosity", "setting": "[1]; 313.15 K", "value": "0.4702 ± 0.0058", "unit": "mPa·s"}]}
{"smiles": "CO", "note": "[methanol] + CCC(=O)[O-].CC[NH+]1CCNCC1", "values": [{"measurement": "viscosity", "setting": "[2]; 298.15 K", "value": "0.558 ± 0.0068", "unit": "mPa·s"}, {"measurement": "mass density", "setting": "[2]; 298.15 K", "value": "786.686 ± 1.4", "unit": "kg/m3"}, {"measurement": "viscosity", "setting": "[2]; 303.15 K", "value": "0.5261 ± 0.0065", "unit": "mPa·s"}, {"measurement": "mass density", "setting": "[2]; 303.15 K", "value": "781.993 ± 1.4", "unit": "kg/m3"}, {"measurement": "viscosity", "setting": "[2]; 308.15 K", "value": "0.4966 ± 0.0061", "unit": "mPa·s"}, {"measurement": "mass density", "setting": "[2]; 308.15 K", "value": "777.249 ± 1.4", "unit": "kg/m3"}, {"measurement": "viscosity", "setting": "[2]; 313.15 K", "value": "0.4702 ± 0.0058", "unit": "mPa·s"}, {"measurement": "mass density", "setting": "[2]; 313.15 K", "value": "772.475 ± 1.5", "unit": "kg/m3"}]}
{"smiles": "CCCO", "note": "[propan-1-ol]", "values": [{"measurement": "mass density", "setting": "[1]; 298.15 K", "value": "799.557 ± 1.3", "unit": "kg/m3"}, {"measurement": "viscosity", "setting": "[1]; 298.15 K", "value": "1.941 ± 0.024", "unit": "mPa·s"}, {"measurement": "mass density", "setting": "[1]; 303.15 K", "value": "795.543 ± 1.3", "unit": "kg/m3"}, {"measurement": "viscosity", "setting": "[1]; 303.15 K", "value": "1.728 ± 0.021", "unit": "mPa·s"}, {"measurement": "mass density", "setting": "[1]; 308.15 K", "value": "791.479 ± 1.4", "unit": "kg/m3"}, {"measurement": "viscosity", "setting": "[1]; 308.15 K", "value": "1.545 ± 0.019", "unit": "mPa·s"}, {"measurement": "mass density", "setting": "[1]; 313.15 K", "value": "787.371 ± 1.4", "unit": "kg/m3"}, {"measurement": "viscosity", "setting": "[1]; 313.15 K", "value": "1.385 ± 0.017", "unit": "mPa·s"}]}
{"smiles": "CCCO", "note": "[propan-1-ol] + CCC(=O)[O-].CC[NH+]1CCNCC1", "values": [{"measurement": "viscosity", "setting": "[2]; 298.15 K", "value": "1.941 ± 0.024", "unit": "mPa·s"}, {"measurement": "mass density", "setting": "[2]; 298.15 K", "value": "799.557 ± 1.3", "unit": "kg/m3"}, {"measurement": "viscosity", "setting": "[2]; 303.15 K", "value": "1.728 ± 0.021", "unit": "mPa·s"}, {"measurement": "mass density", "setting": "[2]; 303.15 K", "value": "795.543 ± 1.3", "unit": "kg/m3"}, {"measurement": "viscosity", "setting": "[2]; 308.15 K", "value": "1.545 ± 0.019", "unit": "mPa·s"}, {"measurement": "mass density", "setting": "[2]; 308.15 K", "value": "791.479 ± 1.4", "unit": "kg/m3"}, {"measurement": "viscosity", "setting": "[2]; 313.15 K", "value": "1.385 ± 0.017", "unit": "mPa·s"}, {"measurement": "mass density", "setting": "[2]; 313.15 K", "value": "787.371 ± 1.4", "unit": "kg/m3"}]}
